According to patent publication US20250282827A1, “LIPIDATED POLYMYXIN ANALOGUES” (priority 2021, published 2025):
In brackets after ≈: the same amount, converted by molar mass. Positions of bridges follow the written chain, without caps; N, C: chain ends. Non-standard residues stand in square brackets, D forms with d. Residues, ends and D or L forms follow the SMILES beside them. *: point of attachment. CH2CH2OBz(4-tBu) = CC(C)(C)c1ccc(C(=O)OCC*)cc1; Ethyl(2-decanoyloxy) = CCCCCCCCCC(=O)OCC*; Ethyl(2-butanoyloxy) = CCCC(=O)OCC*; Ethyl(2-propionyloxy) = CCC(=O)OCC*; Ethyl(2-OPiv) = CC(C)(C)C(=O)OCC*; Dab = NCC[C@H](N)C(=O)O; Dap = NC[C@H](N)C(=O)O; X4 = CCCCCCCC(=O)OCC*

Assays:
[1] = test system: E. coli ATCC 25922; type: cell-based, Escherichia coli; settings: ATCC 25922
Description: (§1) All 81 compounds prepared in Examples 2 and 3 underwent screening against a panel of Gram-negative bacterium to assess their ability to inhibit bacterial growth. […] The median value is presented.

[2] = test system: A. baumannii ATCC 19606; type: cell-based, Acinetobacter baumannii; settings: ATCC 19606
Description: as §1

[3] = test system: P. aeruginosa ATCC 27853; type: cell-based, Pseudomonas aeruginosa; settings: ATCC 27853
Description: as §1

[4] = test system: K. pneumoniae ATCC 33495; type: cell-based, Klebsiella pneumoniae; settings: ATCC 33495
Description: as §1

[5] = test system: K. pneumoniae ATCC 700603; type: cell-based, Klebsiella pneumoniae; settings: ATCC 700603
Description: as §1

[6] = test system: K. pneumoniae ATCC MS6671; type: cell-based, Klebsiella pneumoniae; settings: ATCC MS6671
Description: as §1

[7] = test system: E. coli ATCC MS8345; type: cell-based, Escherichia coli; settings: ATCC MS8345
Description: as §1
Expansion of the polymyxin macrocycle by substituting […]) offered little advantage in antimicrobial activity but was generally well tolerated although for A. baumanni and P. aeruginosa this was detrimental.

| Compound | MIC E. coli ATCC 25922 [1] [µg/mL] | MIC A. baumannii ATCC 19606 [2] [µg/mL] | MIC P. aeruginosa ATCC 27853 [3] [µg/mL] | MIC K. pneumoniae ATCC 33495 [4] [µg/mL] | MIC K. pneumoniae ATCC 700603 [5] [µg/mL] | MIC K. pneumoniae ATCC MS6671 [6] [µg/mL] | MIC E. coli ATCC MS8345 [7] [µg/mL] |
| --- | --- | --- | --- | --- | --- | --- | --- |
| CCC(=O)OCCSC[C@H](N)C(=O)N[C@@H](CCN)C(=O)N[C@H](C(=O)N[C@@H](CCN)C(=O)N[C@H]1CCCCNC(=O)[C@H]([C@@H](C)O)NC(=O)[C@H](CCN)NC(=O)[C@H](CCN)NC(=O)[C@H](CC(C)C)NC(=O)[C@@H](Cc2ccccc2)NC(=O)[C@H](CCN)NC1=O)[C@@H](C)O [Compound 23] (H-C(Ethyl(2-propionyloxy))[Dab]T[Dab]K[Dab][dF]L[Dab][Dab]T; lactam 5-C) | 4 (≈ 3.09 µM) | >32 | >32 | 4 (≈ 3.09 µM) | >32 | >32 | >32 |
| CCCC(=O)OCCSC[C@H](N)C(=O)N[C@@H](CCN)C(=O)N[C@H](C(=O)N[C@@H](CCN)C(=O)N[C@H]1CCCCNC(=O)[C@H]([C@@H](C)O)NC(=O)[C@H](CCN)NC(=O)[C@H](CCN)NC(=O)[C@H](CC(C)C)NC(=O)[C@@H](Cc2ccccc2)NC(=O)[C@H](CCN)NC1=O)[C@@H](C)O [Compound 24] (H-C(Ethyl(2-butanoyloxy))[Dab]T[Dab]K[Dab][dF]L[Dab][Dab]T; lactam 5-C) | 2 (≈ 1.53 µM) | >32 | >32 | 1 (≈ 0.764 µM) |  | >32 | >32 |
| CCCCCCCCCC(=O)OCCSC[C@H](N)C(=O)N[C@@H](CCN)C(=O)N[C@H](C(=O)N[C@@H](CCN)C(=O)N[C@H]1CCCCNC(=O)[C@H]([C@@H](C)O)NC(=O)[C@H](CCN)NC(=O)[C@H](CCN)NC(=O)[C@H](CC(C)C)NC(=O)[C@@H](Cc2ccccc2)NC(=O)[C@H](CCN)NC1=O)[C@@H](C)O [Compound 25] (H-C(Ethyl(2-decanoyloxy))[Dab]T[Dab]K[Dab][dF]L[Dab][Dab]T; lactam 5-C) | 2 (≈ 1.44 µM) | >32 | 0.5 (≈ 0.359 µM) | 0.5 (≈ 0.359 µM) | 2 (≈ 1.44 µM) | >32 | 16 to 32 |
| CCC(=O)OCCSC[C@@H](N)C(=O)N[C@@H](CCN)C(=O)N[C@H](C(=O)N[C@@H](CCN)C(=O)N[C@H]1CCNC(=O)[C@H]([C@@H](C)O)NC(=O)[C@H](CCN)NC(=O)[C@H](CCN)NC(=O)[C@H](CC(C)C)NC(=O)[C@@H](Cc2ccccc2)NC(=O)[C@H](CCN)NC1=O)[C@@H](C)O [Compound 58] (H-[dC](Ethyl(2-propionyloxy))[Dab]T[Dab][Dab][Dab][dF]L[Dab][Dab]T; lactam 5-C) | 2 (≈ 1.58 µM) | >32 | 2 (≈ 1.58 µM) | 2 (≈ 1.58 µM) | 4 (≈ 3.16 µM) | >32 |  |
| CCCCCCCC(=O)OCCSC[C@@H](N)C(=O)N[C@H](C(=O)N[C@@H](CCN)C(=O)N[C@H]1CCNC(=O)[C@H]([C@@H](C)O)NC(=O)[C@H](CCN)NC(=O)[C@H](CCN)NC(=O)[C@H](CC(C)C)NC(=O)[C@@H](Cc2ccccc2)NC(=O)[C@H](CCN)NC1=O)[C@@H](C)O [Compound 77] (H-[dC](X4)T[Dab][Dab][Dab][dF]L[Dab][Dab]T; lactam 4-C) | 0.25 (≈ 0.202 µM) |  |  |  |  |  |  |
| CC(C)C[C@@H]1NC(=O)[C@@H](Cc2ccccc2)NC(=O)[C@H](CCN)NC(=O)[C@@H](NC(=O)[C@H](CCN)NC(=O)[C@@H](NC(=O)[C@H](N)CSCCOC(=O)C(C)(C)C)[C@@H](C)O)CCNC(=O)[C@H]([C@@H](C)O)NC(=O)[C@H](CCN)NC(=O)[C@H](CCN)NC1=O [Compound 79] (H-[dC](Ethyl(2-OPiv))T[Dab][Dab][Dab][dF]L[Dab][Dab]T; lactam 4-C) | 0.25 (≈ 0.209 µM) |  |  |  |  |  |  |
| CC(C)C[C@@H]1NC(=O)[C@@H](Cc2ccccc2)NC(=O)[C@H](CCN)NC(=O)[C@@H](NC(=O)[C@H](CCN)NC(=O)[C@@H](NC(=O)[C@H](N)CSCCOC(=O)c2ccc(C(C)(C)C)cc2)[C@@H](C)O)CCNC(=O)[C@H]([C@@H](C)O)NC(=O)[C@H](CCN)NC(=O)[C@H](CCN)NC1=O [Compound 80] (H-[dC](CH2CH2OBz(4-tBu))T[Dab][Dab][Dab][dF]L[Dab][Dab]T; lactam 4-C) | 0.5 (≈ 0.394 µM) |  |  |  |  |  |  |
| CCC(=O)OCCSC[C@H](N)C(=O)N[C@H](C(=O)N[C@@H](CN)C(=O)N[C@H]1CCNC(=O)[C@H]([C@@H](C)O)NC(=O)[C@H](CCN)NC(=O)[C@H](CCN)NC(=O)[C@H](CC(C)C)NC(=O)[C@@H](Cc2ccccc2)NC(=O)[C@H](CCN)NC1=O)[C@@H](C)O [Compound 81] (H-C(Ethyl(2-propionyloxy))T[Dap][Dab][Dab][dF]L[Dab][Dab]T; lactam 4-C) | 16 (≈ 13.9 µM) |  |  |  |  |  |  |
